{
  "source": "patent US20230096856A1",
  "about": "“COMBINED TREATMENT REGIMEN OF […]/SEDATION WITH ADMINISTRATION OF P[…] ASSOCIATED WITH REDUCTION IN NEUROP[…]” (priority 2021, published 2023)",
  "origin": "cited, not measured here",
  "key": {"[1]": {"test_system": "ventral dentate gyrus of the hippocampus", "settings": "single dose"}, "sigma-1 receptors [2]": {"test_system": "sigma-1 receptors"}, "[3]": {"test_system": "hallucinogenic experience", "settings": "in vivo"}, "tinnitus": {"test_system": "tinnitus", "settings": "single dose, mice"}, "Sigma-1 receptors [4]": {"target": "Sigma-1 receptors (Homo sapiens, UniProt Q99720)", "sequence (Q99720 whole entry)": "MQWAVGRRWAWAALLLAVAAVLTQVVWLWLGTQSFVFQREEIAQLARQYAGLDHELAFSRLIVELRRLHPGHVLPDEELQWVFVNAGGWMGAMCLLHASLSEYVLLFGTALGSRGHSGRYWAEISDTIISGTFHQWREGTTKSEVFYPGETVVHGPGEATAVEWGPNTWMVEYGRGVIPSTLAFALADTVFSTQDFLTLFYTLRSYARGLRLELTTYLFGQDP", "settings": "receptors that modulate immune responses in human monocyte-derived dendritic cells"}, "[5]": {"test_system": "extracellular glutamate levels", "settings": "rat models"}, "BDNF": {"test_system": "BDNF", "settings": "rats exposed to psychological stress"}, "[6]": {"test_system": "N-methyl-D-aspartate (NMDA) receptors"}, "AMPA receptor": {"test_system": "AMPA receptor", "settings": "sub-anesthetic dose, animal studies"}, "[7]": {"test_system": "gamma-aminobutyric acid type A receptors", "settings": "acutely"}, "5-HT2A receptors": {"target": "5-HT2A receptors (Homo sapiens, UniProt P28223)", "sequence (P28223 whole entry)": "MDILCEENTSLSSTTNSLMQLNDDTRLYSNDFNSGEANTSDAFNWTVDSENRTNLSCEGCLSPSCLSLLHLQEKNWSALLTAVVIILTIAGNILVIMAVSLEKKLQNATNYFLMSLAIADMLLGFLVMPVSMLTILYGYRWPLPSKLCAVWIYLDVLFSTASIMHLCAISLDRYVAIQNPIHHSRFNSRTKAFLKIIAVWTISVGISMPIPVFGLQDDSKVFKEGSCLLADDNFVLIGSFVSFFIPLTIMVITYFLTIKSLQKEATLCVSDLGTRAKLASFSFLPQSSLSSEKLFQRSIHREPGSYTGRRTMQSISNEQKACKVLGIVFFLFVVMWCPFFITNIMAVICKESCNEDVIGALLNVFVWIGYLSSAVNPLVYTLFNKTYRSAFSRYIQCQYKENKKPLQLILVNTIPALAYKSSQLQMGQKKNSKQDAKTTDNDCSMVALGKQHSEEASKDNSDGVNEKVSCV"}},
  "data": [
    {"compound": "COc1ccc2[nH]cc(CCN(C)C)c2c1", "note": "[5-MeO-DMT, 5-5-Methoxy-N,N-dimethyltryptamine]", "values": [
      {"measurement": "cell proliferation and neuronal survivability in the ventral dentate gyrus of the hippocampus", "setting": "[1]", "result": "stimulates cell proliferation and neuronal survivability"},
      {"measurement": "neurogenesis in the ventral dentate gyrus", "setting": "[1]; adult mice", "result": "enhances neurogenesis"},
      {"measurement": "IFNc and GM-CSF expression", "setting": "sigma-1 receptors [2]", "result": "suppressing"},
      {"measurement": "secretion level of anti-inflammatory interleukin 10 cytokine", "setting": "sigma-1 receptors [2]", "result": "increase the secretion level"},
      {"measurement": "mGluR5 regulation", "setting": "human cerebral organoids", "result": "downregulation of mGluR5"},
      {"measurement": "neural plasticity and anti-inflammatory activity", "setting": "human cerebral organoids", "result": "potentiation of neural plasticity and elevated anti-inflammatory activity"},
      {"measurement": "PLA2 activation", "setting": "phospholipase A2 (PLA2)", "result": "differentially strong phospholipase A2 (PLA2) activation"},
      {"measurement": "duration of acute hallucinogenic state", "setting": "[3]", "result": "5 to 20", "unit": "min"},
      {"measurement": "duration of hallucinogenic experience", "setting": "[3]", "result": "10 to 20", "unit": "min"},
      {"measurement": "tinnitus", "setting": "tinnitus", "result": "can be reduced"},
      {"measurement": "affinity for Sigma-1 receptors", "setting": "Sigma-1 receptors [4]", "result": "functionally significant affinity"}
    ]},
    {"compound": "CNC1(c2ccccc2Cl)CCCCC1=O", "note": "(stereo not drawn) [ketamine]", "values": [
      {"measurement": "extracellular glutamate levels in prefrontal-limbic circuitry", "setting": "[5]", "result": "increases extracellular glutamate levels"}
    ]},
    {"compound": "O=C(c1ccc(F)cc1)C1CCN(CCn2c(=O)[nH]c3ccccc3c2=O)CC1", "note": "[ketanserin]", "values": [
      {"measurement": "BDNF mRNA", "setting": "BDNF", "result": "reducing the presence BDNF mRNA"},
      {"measurement": "immunoreactivity indicative of BDNF presence in brain areas", "setting": "BDNF", "result": "inhibits BDNF immunoreactivity"}
    ]},
    {"compound": "CC(C)c1cccc(C(C)C)c1O", "note": "[propofol]", "values": [
      {"measurement": "inhibition of NMDA receptors", "setting": "[6]", "result": "does not induce inhibition"},
      {"measurement": "time after induction until desired SR>80% was reached", "setting": "depression; EEG suppression ratio", "result": "About five"},
      {"measurement": "QIDS-SR scale scores", "setting": "depression; after approximately four sessions (1 week), asymptote at approximately 7 sessions (two weeks)", "result": "significant reduction"},
      {"measurement": "average recovery time until oriented to time and place", "setting": "depression; after eye opening", "result": "5 to 10", "unit": "min"},
      {"measurement": "cognitive side effects common for ECT (short term memory loss)", "setting": "depression; in vivo", "result": "do not occur"},
      {"measurement": "effect on efficacy of ECT in treating depression", "setting": "depression; in vivo", "result": "does not diminish the efficacy"},
      {"measurement": "period within which severity of self-report symptoms of moderate to severe depression is reduced", "setting": "depression; in vivo", "result": "1-2 weeks"},
      {"measurement": "time to state of unconsciousness upon induction", "setting": "depression; in vivo", "result": "one"},
      {"measurement": "expression of AMPA pGluR1", "setting": "AMPA receptor", "result": "increase the expression of AMPA pGluR1 in dose-dependent manner"},
      {"measurement": "speed and degree of glutamate-induced desensitization of the AMPA receptor in neurons", "setting": "AMPA receptor", "result": "can decrease"},
      {"measurement": "LTP induction", "setting": "[7]", "result": "inhibits long term potentiation (LTP) induction"}
    ]},
    {"compound": "COC(=O)[C@@H]1C[C@H](OC(C)=O)C(=O)[C@H]2[C@@]1(C)CC[C@H]1C(=O)O[C@H](c3ccoc3)C[C@]21C", "note": "[salvinorin A]", "values": [
      {"measurement": "interaction with 5-HT2A receptors", "setting": "5-HT2A receptors", "result": "interact minimally, indirectly, or not at all"}
    ]},
    {"compound": "ibogaine", "values": [
      {"measurement": "interaction with 5-HT2A receptors", "setting": "5-HT2A receptors", "result": "interact minimally, indirectly, or not at all"}
    ]}
  ]
}
